“And” between values parts separate entries of the source, which are not always exact repeats. Identical values can stand only once. Like-named read-outs stand apart in the source and are kept apart here.
Columns and labels:
[1] = Animal weight of tumor-bearing mice; conditions: LUAD-0087AS2 PDX, Pralsetinib 30 mg/kg BID, individual animals
[2] = test system: Ba/F3-RET^M918T; assay: Growth inhibition assay in Ba/F3 cells (CellTiter-Glo, 72 h); assay type: cell-based; conditions: Mus musculus, BaF3, 72 h, read-out: GI50 value (Mean ± SD), Ba/F3-RET^M918T, CellTiter-Glo, 72 h
[3] = test system: Ba/F3 KIF5B–RET^G810R allograft tumors; assay: Subcutaneous allograft efficacy study; assay type: in vivo, BALB/c nude mice; conditions: in mm³ (unit assumed);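 note: mean tumor volume per dosing group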
[4] = test system: ECLC5B cells; assay: Growth inhibition (alamarBlue, 96 h); assay type: cell-based, human; conditions: for raw viability signal (Source Data Fig. 3b-c): ECLC5B, replicates
[5] = test system: Ba/F3 cells expressing KIF5B–RET^G810S; assay: Growth inhibition assay in Ba/F3 cells (CellTiter-Glo, 72 h); assay type: cell-based; conditions: Ba/3-KIF5B-RET-G810S; replicate Sets 1-3
[6] = Transcellular transport study, apparent permeability; conditions: pig, LLC-PK1
[7] = test system: Ba/F3 cells expressing KIF5B–RET^V804M; assay: Growth inhibition assay in Ba/F3 cells (CellTiter-Glo, 72 h); assay type: cell-based; conditions: replicate sets
[8] = test system: TT cells (RET C634W); assay: Dose-response western blotting, EC50 for inhibition of protein phosphorylation; assay type: cell-based; conditions: Homo sapiens
[9] = test system: LUAD-0002AS1 cells (KIF5B::RET); assay: as above; assay type: cell-based; conditions: Homo sapiens, LUAD-0002AS1, 2 h, densitometry
[10] = test system: LUAD-0057BS1 cells; assay: Growth inhibition (alamarBlue, 96 h); assay type: cell-based, human; conditions: for raw viability signal (Source Data Fig. 3b-c): LUAD-0057BS1, replicate sets
[11] = test system: Ba/F3-CCDC6::RET; assay: Growth inhibition assay in Ba/F3 cells (CellTiter-Glo, 72 h); assay type: cell-based
[12] = Homo sapiens, 96 h, read-out: IC50 for Inhibition of Growth (95% CI)

Compound: CO[C@]1(C(=O)N[C@@H](C)c2ccc(-n3cc(F)cn3)nc2)CC[C@H](c2nc(C)cc(Nc3cc(C)[nH]n3)n2)CC1 [Pralsetinib]
- Animal Weight ([1]; treatment day 32): 29 g and 25 g (2×) and 26 g (2×)
- Animal Weight ([1]; treatment day 35): 29 g and 25 g (3×) and 26 g
- Animal Weight ([1]; treatment day 38): 25 g (3×) and 24 g and 26 g
- Animal Weight ([1]; treatment day 42): 28 g and 25 g (2×) and 26 g (2×)
- Animal Weight ([1]; treatment day 45): 28 g and 25 g (2×) and 26 g (2×)
- GI50 [2]: 1.62 ± 0.77 nM
- Tumor Volume Mean ([3]; Fig. 7c Ba/F3-KIF5B::RET G810R, pralsetinib 10 mg/kg BID, day 1): 154.09
- Tumor Volume Mean ([3]; Fig. 7c Ba/F3-KIF5B::RET G810R, pralsetinib 10 mg/kg BID, day 4): 213.90
- Tumor Volume Mean ([3]; Fig. 7c Ba/F3-KIF5B::RET G810R, pralsetinib 10 mg/kg BID, day 8): 315.85
- Tumor Volume Mean ([3]; Fig. 7c Ba/F3-KIF5B::RET G810R, pralsetinib 10 mg/kg BID, day 11): 472.80
- Tumor Volume Mean ([3]; Fig. 7c Ba/F3-KIF5B::RET G810R, pralsetinib 10 mg/kg BID, day 15): 1059.21
- Tumor Volume Mean ([3]; Fig. 7d Ba/F3-KIF5B::RET G810R, pralsetinib 30 mg/kg BID, day 1): 163.0
- Tumor Volume Mean ([3]; Fig. 7d Ba/F3-KIF5B::RET G810R, pralsetinib 30 mg/kg BID, day 4): 312.7
- Tumor Volume Mean ([3]; Fig. 7d Ba/F3-KIF5B::RET G810R, pralsetinib 30 mg/kg BID, day 8): 411.9
- Tumor Volume Mean ([3]; Fig. 7d Ba/F3-KIF5B::RET G810R, pralsetinib 30 mg/kg BID, day 11): 562.8
- Tumor Volume Mean ([3]; Fig. 7d Ba/F3-KIF5B::RET G810R, pralsetinib 30 mg/kg BID, day 15): 747.9
- raw viability signal (Source Data Fig. 3b-c) ([4]; 0.01 nM): 11159.3 and 6334.79 and 21867.4
- raw viability signal (Source Data Fig. 3b-c) ([4]; 0.1 nM): 11498.4 and 7246.25 and 22158.4
- raw viability signal (Source Data Fig. 3b-c) ([4]; 1 nM): 11273.5 and 6357.98 and 19717.2
- raw viability signal (Source Data Fig. 3b-c) ([4]; 10 nM): 5160.26 and 1378.73 and 8133.57
- raw viability signal (Source Data Fig. 3b-c) ([4]; 100 nM): 2920.41 and 1318.47 and 4448.62
- raw viability signal (Source Data Fig. 3b-c) ([4]; 1000 nM): 1849.04 and 1272.17 and 3256.96
- raw viability signal (Source Data Fig. 3b-c) ([4]; 10000 nM): 1438.61 and 1223.5 and 2843.35
- IC50 [4, 12]: 6 nM
- GI50 [5]: 26.2 nM and 86 nM and 39.5 nM
- Papp at 3 h, 1 μM [6]: 14.3 ×10⁻⁶ cm/s
- GI50 ([7]; Ba/3-KIF5B-RET-V804M): 7.93 nM and 8.94 nM
- GI50 ([7]; Mus musculus, BaF3, Ba/3-KIF5B-RET-V804M): 8.92 nM
- EC50 ([8]; read-out: EC50 for Inhibition of Protein Phosphorylation (95% CI), AKT S473, 2 h, densitometry): 1.5 nM
- EC50 ([8]; read-out: EC50 for Inhibition of Protein Phosphorylation (95% CI), ERK1/2 T202/Y204, 2 h, densitometry): 2 nM
- EC50 ([8]; read-out: EC50 for Inhibition of Protein Phosphorylation (95% CI), MEK1/2 S217/S221, 2 h, densitometry): 4.3 nM
- EC50 ([8]; read-out: EC50 for Inhibition of Protein Phosphorylation (95% CI), P70 RSK T421/S424, 2 h, densitometry): 0.4 nM
- EC50 ([8]; read-out: EC50 for Inhibition of Protein Phosphorylation (95% CI), RET Y905, 2 h, densitometry): 1 nM
- EC50 ([8]; read-out: EC50 for Inhibition of Protein Phosphorylation (95% CI), S6RP S235/S236, 2 h, densitometry): 0.7 nM
- EC50 ([9]; read-out: EC50 for Inhibition of Protein Phosphorylation (95% CI), AKT S473): 0.4 nM
- EC50 ([9]; read-out: EC50 for Inhibition of Protein Phosphorylation (95% CI), ERK1/2 T202/Y204): 3.5 nM
- EC50 ([9]; read-out: EC50 for Inhibition of Protein Phosphorylation (95% CI), MEK1/2 S217/S221): 0.9 nM
- EC50 ([9]; read-out: EC50 for Inhibition of Protein Phosphorylation (95% CI), P70 RSK T421/S424): 1.7 nM
- EC50 ([9]; read-out: EC50 for Inhibition of Protein Phosphorylation (95% CI), RET Y905): 1.1 nM
- EC50 ([9]; read-out: EC50 for Inhibition of Protein Phosphorylation (95% CI), S6RP S235/S236): 1.1 nM
- IC50 [10, 12]: 36 nM
- raw viability signal (Source Data Fig. 3b-c) ([10]; 0.01 nM): 16595.3 and 17181.3 and 21729.4
- raw viability signal (Source Data Fig. 3b-c) ([10]; 0.1 nM): 16479.6 and 19958 and 20455.1
- raw viability signal (Source Data Fig. 3b-c) ([10]; 1 nM): 16334.3 and 18804.2 and 20595.3
- raw viability signal (Source Data Fig. 3b-c) ([10]; 10 nM): 13376 and 14580.9 and 14292.2
- raw viability signal (Source Data Fig. 3b-c) ([10]; 100 nM): 5525.42 and 5782.49 and 4569.11
- raw viability signal (Source Data Fig. 3b-c) ([10]; 1000 nM): 1800.25 and 2058.52 and 1619.82
- raw viability signal (Source Data Fig. 3b-c) ([10]; 10000 nM): 968.48 and 1261.32 and 1236.21
- GI50 ([11]; BaF3/CCDC6-RET, 72 h, read-out: GI50 value (Mean ± SD), Ba/F3-CCDC6::RET, CellTiter-Glo, 72 h): 19.9 ± 10.6 nM
- GI50 ([11]; read-out: GI50 values, Ba/F3-CCDC6::RET, individual sets (replicate experiments)): 11.8 nM and 31.9 nM and 15.9 nM

Source: paper PMC10518257 (Nature Cancer, 2023)
